Results published in ChEMBL document CHEMBL1201862, “PubChem BioAssay data set” (2004).
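Briefly, cells in 96-well plates were exposed to five compound concentrations for 48 h, and endpoints were estimated by linear interpolation. GI50 marks 50% less growth.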 Active and inactive are the calls of the source. Rule as the data show it: active = GI50 up to about 1.1 µM and inactive = higher.

Experiments:
Assay in all cases: NCI anticancer screen, dose series, 48 h
OVCAR-8 = system: OVCAR-8
UACC-62 = system: UACC-62
HCT-116 = system: HCT-116
HT-29 = system: HT-29
HOP-62 = system: HOP-62
SK-OV-3 = system: SK-OV-3
KM12 = system: KM12
MCF7 = system: MCF7
ACHN = system: ACHN
MOLT-4 = system: MOLT-4
U-251 = system: U-251
NCI-H460 = system: NCI-H460
MDA-MB-435 = system: MDA-MB-435
MDA-N = system: MDA-N
M14 = system: M14
786-0 = system: 786-0
PC-3 = system: PC-3
NCI-H23 = system: NCI-H23
Malme-3M = system: Malme-3M
SNB-75 = system: SNB-75

COc1ccc(Cn2c(=O)c(OS(=O)(=O)C(F)(F)F)c(C)c3cc4ccccc4cc32)cc1
GI50 (OVCAR-8): > 100 µM (inactive)
GI50 (UACC-62): > 100 µM (inactive)
GI50 (HCT-116): > 100 µM (inactive)
GI50 (HT-29): > 100 µM (inactive)
GI50 (HOP-62): > 100 µM (inactive)
GI50 (SK-OV-3): > 100 µM (inactive)
GI50 (KM12): > 100 µM (inactive)
GI50 (MCF7): > 100 µM (inactive)
GI50 (ACHN): > 100 µM (inactive)
GI50 (MOLT-4): > 100 µM (inactive)
GI50 (U-251): > 100 µM (inactive)
GI50 (NCI-H460): > 100 µM (inactive)
GI50 (MDA-MB-435): > 100 µM (inactive)
GI50 (MDA-N): > 100 µM (inactive)
GI50 (M14): > 100 µM (inactive)
GI50 (786-0): > 100 µM (inactive)
GI50 (PC-3): > 100 µM (inactive)
GI50 (NCI-H23): > 100 µM (inactive)
GI50 (Malme-3M): 86.1 µM (inactive)
GI50 (SNB-75): > 100 µM (inactive)

Nc1ccccc1/N=C/c1cc2cc([N+](=O)[O-])ccc2s1
GI50 (OVCAR-8): 15 µM (inactive)
GI50 (UACC-62): 12.6 µM (inactive)
GI50 (HCT-116): 24.9 µM (inactive)
GI50 (HT-29): 25.8 µM (inactive)
GI50 (HOP-62): 16.8 µM (inactive)
GI50 (SK-OV-3): 13.9 µM (inactive)
GI50 (KM12): 10 µM (inactive)
GI50 (MCF7): 5.27 µM (inactive)
GI50 (ACHN): 11.6 µM (inactive)
GI50 (MOLT-4): 3.08 µM (inactive)
GI50 (U-251): 14.5 µM (inactive)
GI50 (NCI-H460): 5.58 µM (inactive)
GI50 (MDA-MB-435): 31.4 µM (inactive)
GI50 (MDA-N): 37.8 µM (inactive)
GI50 (M14): 22.4 µM (inactive)
GI50 (786-0): 14.5 µM (inactive)
GI50 (PC-3): 14.2 µM (inactive)
GI50 (NCI-H23): 33 µM (inactive)
GI50 (Malme-3M): 26.6 µM (inactive)
GI50 (SNB-75): 14.4 µM (inactive)

COC1C(O)=C2C(=O)O/C(C)=C/C=C/C=C/C=C\CC(c3ccccc3)NC(=O)\C=C/C=C\C=C\C=C\[C@@]2(C)[C@@H]1O (stereo not given in full)
GI50 (OVCAR-8): 0.0157 µM (active)
GI50 (UACC-62): 0.0675 µM (active)
GI50 (HCT-116): < 0.01 µM (active)
GI50 (HT-29): < 0.01 µM (active)
GI50 (HOP-62): < 0.0334 µM (active)
GI50 (SK-OV-3): < 0.021 µM (active)
GI50 (KM12): < 0.0146 µM (active)
GI50 (MCF7): < 0.01 µM (active)
GI50 (ACHN): < 0.01 µM (active)
GI50 (MOLT-4): < 0.0181 µM (active)
GI50 (U-251): < 0.01 µM (active)
GI50 (NCI-H460): < 0.01 µM (active)
GI50 (MDA-MB-435): < 0.01 µM (active)
GI50 (MDA-N): 0.033 µM (active)
GI50 (M14): < 0.0371 µM (active)
GI50 (786-0): 0.017 µM (active)
GI50 (PC-3): < 0.01 µM (active)
GI50 (NCI-H23): 0.0144 µM (active)
GI50 (Malme-3M): < 0.0223 µM (active)
GI50 (SNB-75): < 0.01 µM (active)

O=C(c1ccccc1)c1ccc2nc3n(c2c1)C(c1c(Cl)cccc1Cl)SC3 (stereo not given)
GI50 (OVCAR-8): 6.65 µM (inactive)
GI50 (UACC-62): 4.06 µM (inactive)
GI50 (HCT-116): 3.26 µM (inactive)
GI50 (HT-29): 6.31 µM (inactive)
GI50 (HOP-62): 6.37 µM (inactive)
GI50 (SK-OV-3): 4.31 µM (inactive)
GI50 (KM12): 2.87 µM (inactive)
GI50 (MCF7): 4.09 µM (inactive)
GI50 (ACHN): 7.69 µM (inactive)
GI50 (MOLT-4): 2.72 µM (inactive)
GI50 (U-251): 5.58 µM (inactive)
GI50 (NCI-H460): 3.66 µM (inactive)
GI50 (MDA-MB-435): 1.77 µM (inactive)
GI50 (MDA-N): 1.63 µM (inactive)
GI50 (M14): 3.3 µM (inactive)
GI50 (786-0): 3.86 µM (inactive)
GI50 (PC-3): 5.41 µM (inactive)
GI50 (NCI-H23): 5.66 µM (inactive)
GI50 (Malme-3M): 2.81 µM (inactive)
GI50 (SNB-75): 2.34 µM (inactive)

CC(C)=CC[C@H]1C[C@]2(CC=C(C)C)C(=O)[C@@](CC=C(C)C)(C(=O)C(C(=O)c3ccccc3)=C2O)C1(C)C [6-EPI-CLUSIANONE]
GI50 (OVCAR-8): 5.78 µM (inactive)
GI50 (UACC-62): 3.44 µM (inactive)
GI50 (HCT-116): 3.63 µM (inactive)
GI50 (HT-29): 4.67 µM (inactive)
GI50 (HOP-62): 6.87 µM (inactive)
GI50 (SK-OV-3): 5.32 µM (inactive)
GI50 (KM12): 3.88 µM (inactive)
GI50 (MCF7): 4.59 µM (inactive)
GI50 (ACHN): 4.88 µM (inactive)
GI50 (MOLT-4): 4.56 µM (inactive)
GI50 (U-251): 4.31 µM (inactive)
GI50 (NCI-H460): 3.3 µM (inactive)
GI50 (MDA-MB-435): 5.4 µM (inactive)
GI50 (MDA-N): 5.21 µM (inactive)
GI50 (M14): 6.65 µM (inactive)
GI50 (786-0): 5.51 µM (inactive)
GI50 (PC-3): 4.78 µM (inactive)
GI50 (NCI-H23): 7.67 µM (inactive)
GI50 (Malme-3M): 6.49 µM (inactive)
GI50 (SNB-75): 7.28 µM (inactive)

O=C1C(=C2SC(c3ccccc3)(c3ccccc3)c3ccccc32)C(=O)c2ccccc21
GI50 (OVCAR-8): > 100 µM (inactive)
GI50 (UACC-62): > 100 µM (inactive)
GI50 (HCT-116): > 100 µM (inactive)
GI50 (HT-29): > 100 µM (inactive)
GI50 (HOP-62): > 100 µM (inactive)
GI50 (SK-OV-3): > 100 µM (inactive)
GI50 (KM12): > 100 µM (inactive)
GI50 (MCF7): > 100 µM (inactive)
GI50 (ACHN): > 100 µM (inactive)
GI50 (MOLT-4): > 100 µM (inactive)
GI50 (U-251): > 100 µM (inactive)
GI50 (NCI-H460): > 100 µM (inactive)
GI50 (MDA-MB-435): > 100 µM (inactive)
GI50 (MDA-N): > 100 µM (inactive)
GI50 (M14): > 100 µM (inactive)
GI50 (786-0): > 100 µM (inactive)
GI50 (PC-3): 82.4 µM (inactive)
GI50 (NCI-H23): > 100 µM (inactive)
GI50 (Malme-3M): > 100 µM (inactive)
GI50 (SNB-75): > 100 µM (inactive)

CCCC/C=C/C/C=C/CCCCCCCCC(=O)OCC1CCCN2CCCCC12 (stereo not given)
GI50 (OVCAR-8): > 100 µM (inactive)
GI50 (UACC-62): 48.6 µM (inactive)
GI50 (HCT-116): > 100 µM (inactive)
GI50 (HT-29): > 100 µM (inactive)
GI50 (HOP-62): > 100 µM (inactive)
GI50 (SK-OV-3): > 100 µM (inactive)
GI50 (KM12): > 100 µM (inactive)
GI50 (MCF7): > 100 µM (inactive)
GI50 (ACHN): > 100 µM (inactive)
GI50 (MOLT-4): > 100 µM (inactive)
GI50 (U-251): > 100 µM (inactive)
GI50 (NCI-H460): > 100 µM (inactive)
GI50 (MDA-MB-435): > 100 µM (inactive)
GI50 (MDA-N): > 100 µM (inactive)
GI50 (M14): > 100 µM (inactive)
GI50 (786-0): > 100 µM (inactive)
GI50 (PC-3): > 100 µM (inactive)
GI50 (NCI-H23): > 100 µM (inactive)
GI50 (Malme-3M): 87.5 µM (inactive)
GI50 (SNB-75): > 100 µM (inactive)
